Laboratory results as given in patent US10202361B2, “Pyridazinones as herbicides” (E I DU PONT DE NEMOURS AND COMPANY, priority 2014, dated 2019).

Columns and labels:
Assay in all cases: Test D pre-/postemergence controlled growth environment herbicide test
Type in all cases: in vivo
Details in all cases: scale 0 to 100
[1] = system: field violet (Viola arvensis)
Procedure, shortened: (§1)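 Pre-emergence treatment on silt loam soil and post-emergence treatment of 1- to 4-leaf plants (2–18 cm) in peat-based medium, compounds in a non-phytotoxic solvent with surfactant. Visual rating against untreated controls after 14–21 d in a controlled environment, scale 0 (no effect) to 100 (complete control).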

[2] = system: deadnettle (henbit deadnettle, Lamium amplexicaule)
Procedure, shortened: as §1

[3] = system: oilseed rape (Brassica napus)
Procedure, shortened: as §1

[4] = system: wheat, winter (winter wheat, Triticum aestivum)
Procedure, shortened: as §1

[5] = system: radish, wild (wild radish, Raphanus raphanistrum)
Procedure, shortened: as §1

[6] = system: field poppy (Papaver rhoeas)
Procedure, shortened: as §1

[7] = system: chamomile (scentless chamomile, Matricaria inodora)
Procedure, shortened: as §1

[8] = system: foxtail, green (green foxtail, Setaria viridis)
Procedure, shortened: as §1

[9] = system: galium (catchweed bedstraw, Galium aparine)
Procedure, shortened: as §1

[10] = system: downy bromegrass (Bromus tectorum)
Procedure, shortened: as §1

[11] = system: lambsquarters (Chenopodium album)
Procedure, shortened: as §1

Cc1cc(=O)n(-c2ccc(F)cc2)nc1Oc1ccnc(C(F)(F)F)c1 [Compound 14, 2-(4-fluorophenyl)-5-methyl-6-[[2-(trifluoromethyl)-4-pyridinyl]oxy]-3 (2H)-pyridazinone]
Plant response rating ([1]; Postemergence, 16 g ai/ha): 60 | Plant response rating ([1]; Postemergence, 31 g ai/ha): 70 | Plant response rating ([1]; Postemergence, 62 g ai/ha): 65 | Plant response rating ([1]; Postemergence, 125 g ai/ha): 100 | Plant response rating ([1]; Postemergence, 250 g ai/ha): 100 | Plant response rating ([1]; Preemergence, 16 g ai/ha): 85 | Plant response rating ([1]; Preemergence, 31 g ai/ha): 95 | Plant response rating ([1]; Preemergence, 62 g ai/ha): 100 | Plant response rating ([1]; Preemergence, 125 g ai/ha): 95 | Plant response rating ([1]; Preemergence, 250 g ai/ha): 100 | Plant response rating ([2]; Postemergence, 16 g ai/ha): 50 | Plant response rating ([2]; Postemergence, 31 g ai/ha): 60 | Plant response rating ([2]; Postemergence, 62 g ai/ha): 60 | Plant response rating ([2]; Postemergence, 125 g ai/ha): 65 | Plant response rating ([2]; Postemergence, 250 g ai/ha): 80 | Plant response rating ([2]; Preemergence, 16 g ai/ha): 60 | Plant response rating ([2]; Preemergence, 31 g ai/ha): 15 | Plant response rating ([2]; Preemergence, 62 g ai/ha): 40 | Plant response rating ([2]; Preemergence, 125 g ai/ha): 65 | Plant response rating ([2]; Preemergence, 250 g ai/ha): 100 | Plant response rating ([3]; Postemergence, 16 g ai/ha): 25 | Plant response rating ([3]; Postemergence, 31 g ai/ha): 50 | Plant response rating ([3]; Postemergence, 62 g ai/ha): 15 | Plant response rating ([3]; Postemergence, 125 g ai/ha): 45 | Plant response rating ([3]; Postemergence, 250 g ai/ha): 55 | Plant response rating ([3]; Preemergence, 16 g ai/ha): 0 | Plant response rating ([3]; Preemergence, 31 g ai/ha): 5 | Plant response rating ([3]; Preemergence, 62 g ai/ha): 10 | Plant response rating ([3]; Preemergence, 125 g ai/ha): 15 | Plant response rating ([3]; Preemergence, 250 g ai/ha): 70 | Plant response rating ([4]; Postemergence, 16 g ai/ha): 5 | Plant response rating ([4]; Postemergence, 31 g ai/ha): 10 | Plant response rating ([4]; Postemergence, 62 g ai/ha): 15 | Plant response rating ([4]; Postemergence, 125 g ai/ha): 15 | Plant response rating ([4]; Postemergence, 250 g ai/ha): 15 | Plant response rating ([4]; Preemergence, 16 g ai/ha): 0 | Plant response rating ([4]; Preemergence, 31 g ai/ha): 5 | Plant response rating ([4]; Preemergence, 62 g ai/ha): 5 | Plant response rating ([4]; Preemergence, 125 g ai/ha): 5 | Plant response rating ([4]; Preemergence, 250 g ai/ha): 10 | Plant response rating ([5]; Postemergence, 16 g ai/ha): 40 | Plant response rating ([5]; Postemergence, 31 g ai/ha): 80 | Plant response rating ([5]; Postemergence, 62 g ai/ha): 70 | Plant response rating ([5]; Postemergence, 125 g ai/ha): 75 | Plant response rating ([5]; Postemergence, 250 g ai/ha): 80 | Plant response rating ([5]; Preemergence, 16 g ai/ha): 100 | Plant response rating ([5]; Preemergence, 31 g ai/ha): 100 | Plant response rating ([5]; Preemergence, 62 g ai/ha): 100 | Plant response rating ([5]; Preemergence, 125 g ai/ha): 100 | Plant response rating ([5]; Preemergence, 250 g ai/ha): 100 | Plant response rating ([6]; Postemergence, 16 g ai/ha): 75 | Plant response rating ([6]; Postemergence, 31 g ai/ha): 20 | Plant response rating ([6]; Postemergence, 62 g ai/ha): 75 | Plant response rating ([6]; Postemergence, 125 g ai/ha): 50 | Plant response rating ([6]; Postemergence, 250 g ai/ha): 80 | Plant response rating ([6]; Preemergence, 16 g ai/ha): 95 | Plant response rating ([6]; Preemergence, 31 g ai/ha): 100 | Plant response rating ([6]; Preemergence, 62 g ai/ha): 100 | Plant response rating ([6]; Preemergence, 125 g ai/ha): 100 | Plant response rating ([6]; Preemergence, 250 g ai/ha): 100 | Plant response rating ([7]; Postemergence, 16 g ai/ha): 5 | Plant response rating ([7]; Postemergence, 31 g ai/ha): 10 | Plant response rating ([7]; Postemergence, 62 g ai/ha): 10 | Plant response rating ([7]; Postemergence, 125 g ai/ha): 20 | Plant response rating ([7]; Postemergence, 250 g ai/ha): 25 | Plant response rating ([7]; Preemergence, 16 g ai/ha): 5 | Plant response rating ([7]; Preemergence, 31 g ai/ha): 10 | Plant response rating ([7]; Preemergence, 62 g ai/ha): 25 | Plant response rating ([7]; Preemergence, 125 g ai/ha): 85 | Plant response rating ([7]; Preemergence, 250 g ai/ha): 80 | Plant response rating ([8]; Postemergence, 16 g ai/ha): 30 | Plant response rating ([8]; Postemergence, 31 g ai/ha): 10 | Plant response rating ([8]; Postemergence, 62 g ai/ha): 20 | Plant response rating ([8]; Postemergence, 125 g ai/ha): 15 | Plant response rating ([8]; Postemergence, 250 g ai/ha): 15 | Plant response rating ([8]; Preemergence, 16 g ai/ha): 0 | Plant response rating ([8]; Preemergence, 31 g ai/ha): 15 | Plant response rating ([8]; Preemergence, 62 g ai/ha): 40 | Plant response rating ([8]; Preemergence, 125 g ai/ha): 70 | Plant response rating ([8]; Preemergence, 250 g ai/ha): 100 | Plant response rating ([9]; Postemergence, 16 g ai/ha): 60 | Plant response rating ([9]; Postemergence, 31 g ai/ha): 60 | Plant response rating ([9]; Postemergence, 62 g ai/ha): 60 | Plant response rating ([9]; Postemergence, 125 g ai/ha): 65 | Plant response rating ([9]; Postemergence, 250 g ai/ha): 75 | Plant response rating ([9]; Preemergence, 16 g ai/ha): 0 | Plant response rating ([9]; Preemergence, 31 g ai/ha): 0 | Plant response rating ([9]; Preemergence, 62 g ai/ha): 0 | Plant response rating ([9]; Preemergence, 125 g ai/ha): 5 | Plant response rating ([10]; Postemergence, 16 g ai/ha): 10 | Plant response rating ([10]; Postemergence, 31 g ai/ha): 10 | Plant response rating ([10]; Postemergence, 62 g ai/ha): 10 | Plant response rating ([10]; Postemergence, 125 g ai/ha): 20 | Plant response rating ([10]; Postemergence, 250 g ai/ha): 20 | Plant response rating ([10]; Preemergence, 16 g ai/ha): 0 | Plant response rating ([10]; Preemergence, 31 g ai/ha): 0 | Plant response rating ([10]; Preemergence, 62 g ai/ha): 0 | Plant response rating ([10]; Preemergence, 125 g ai/ha): 0 | Plant response rating ([10]; Preemergence, 250 g ai/ha): 0 | Plant response rating ([11]; Postemergence, 16 g ai/ha): 55 | Plant response rating ([11]; Postemergence, 31 g ai/ha): 60 | Plant response rating ([11]; Postemergence, 62 g ai/ha): 70 | Plant response rating ([11]; Postemergence, 125 g ai/ha): 80 | Plant response rating ([11]; Postemergence, 250 g ai/ha): 90 | Plant response rating ([11]; Preemergence, 16 g ai/ha): 5 | Plant response rating ([11]; Preemergence, 31 g ai/ha): 25 | Plant response rating ([11]; Preemergence, 62 g ai/ha): 20 | Plant response rating ([11]; Preemergence, 125 g ai/ha): 95 | Plant response rating ([11]; Preemergence, 250 g ai/ha): 95
